Results published in patent US20050070558A1, “6-Phenyldihydropyrrolopyrimidinedione derivatives” (priority 2001, published 2005).

system: not given; assay: not given; conditions: not given

With `Cn1c(=O)c2[nH]c(-c3ccc(OCC(=O)N4CCN(c5cccc(C(F)(F)F)c5)CC4)cc3)cc2n(C)c1=O` [Example 74, 1,3-Dimethyl-6-(4-{2-oxo-2-[4-(3-trifluoromethylphenyl)piperazin-1-yl]ethoxy}phenyl)-1,5-dihydropyrrolo[3,2-d]pyrimidine-2,4-dione] the melting point was > 275 °C (dec.).

First: CCCn1c(=O)c2[nH]c(-c3ccc(COC(=O)Nc4cc(OC)nc(OC)n4)cc3)cc2n(CCC)c1=O [Example 259, (2,6-Dimethoxy-pyrimidin-4-yl)-carbamic Acid 4-(2,4-dioxo-1,3-dipropyl-2,3,4,5-tetrahydro-1H-pyrrolo[3,2-d]pyrimidin-6-yl)benzyl Ester]
Second: Cc1ccc(NC(=O)OCc2ccc(-c3cc4c([nH]3)c(=O)n(C)c(=O)n4C)cc2)nc1 [Example 269, (5-Methylpyridin-2-yl)-carbamic acid 4-(1,3-dimethyl-2,4-dioxo-2,3,4,5-tetrahydro-1H-pyrrolo[3,2-d]pyrimidin-6-yl)benzyl ester]
The melting point of the first is lower: 182 to 185 °C for the first, 293 °C for the second.

Going from `Cn1c(=O)c2[nH]c(-c3ccc(COC(=O)Nc4ccccn4)cc3)cc2n(C)c1=O` [Example 268, Pyridin-2-yl-carbamic acid 4-(1,3-dimethyl-2,4-dioxo-2,3,4,5-tetrahydro-1H-pyrrolo[3,2-d]pyrimidin-6-yl)benzyl ester] to `Cn1c(=O)c2[nH]c(-c3ccc(COC(=O)Nc4ccco4)cc3)cc2n(C)c1=O` [Example 272, Furan-2-yl-carbamic acid 4-(1,3-dimethyl-2,4-dioxo-2,3,4,5-tetrahydro 1H-pyrrolo[3,2-d]pyrimidin-6-yl)-benzyl ester], the melting point falls from 301 °C to 278 °C.

Compared with `Cn1c(=O)c2[nH]c(-c3ccc(COC(=O)Nc4cccs4)cc3)cc2n(C)c1=O` [Example 270, Thiophen-2-yl-carbamic acid 4-(1,3-dimethyl-2,4-dioxo-2,3,4,5-tetrahydro-1H-pyrrolo[3,2-d]pyrimidin-6-yl)-benzyl ester], `Cn1c(=O)c2[nH]c(-c3ccc(COC(=O)Nc4ccsc4)cc3)cc2n(C)c1=O` [Example 271, Thiophen-3-yl-carbamic acid 4-(1,3-dimethyl-2,4-dioxo-2,3,4,5-tetrahydro-1H-pyrrolo[3,2-d]pyrimidin-6-yl)-benzyl ester] is lower in melting point: 287 °C for the first, 280 °C for the second.

target: T1, hA2a receptors (Homo sapiens, UniProt P29274); assay: Adenosine 2a receptor subtype competition radioligand binding ([3H]ZM241385); conditions: membranes from hA2a receptors transfected to HEK293 cells, [3H]ZM241385, 90 min at 25° C.; read-out: IC50 A2a
T1 construct: purchased Receptor Biology, Inc. (USA); host or cells: HEK293
Method: Adenosine 2a Receptor Subtype Competition Radioligand Binding
Human membranes from recombinant A2a receptors were purchased from Receptor Biology, Inc. (USA).
Competition assays were carried out by incubation of membranes from hA2a receptors transfected to HEK293 cells, [^3H]ZM241385 as radioligand, buffer (50 mM Tris-HCl (pH 7.4), 10 mM MgCl2, 1 mM EDTA, 2 units/ml adenosine deaminase), and unlabelled ligand in a total volume of 0.2 ml for 90 min at 25° C. NECA was used to determinate non-specific binding. Filter over Schleicher&Schuell GF/52 filters (pre-soaked 0.5% polyethylenyimine) in a Brandel cell harvester. Unbound radioligand was removed with 3×3 ml ice-cold 50 mM Tris-Hcl 50 mM (pH 7.4), 0.9% NaCl.

T1 sequence (P29274 whole entry): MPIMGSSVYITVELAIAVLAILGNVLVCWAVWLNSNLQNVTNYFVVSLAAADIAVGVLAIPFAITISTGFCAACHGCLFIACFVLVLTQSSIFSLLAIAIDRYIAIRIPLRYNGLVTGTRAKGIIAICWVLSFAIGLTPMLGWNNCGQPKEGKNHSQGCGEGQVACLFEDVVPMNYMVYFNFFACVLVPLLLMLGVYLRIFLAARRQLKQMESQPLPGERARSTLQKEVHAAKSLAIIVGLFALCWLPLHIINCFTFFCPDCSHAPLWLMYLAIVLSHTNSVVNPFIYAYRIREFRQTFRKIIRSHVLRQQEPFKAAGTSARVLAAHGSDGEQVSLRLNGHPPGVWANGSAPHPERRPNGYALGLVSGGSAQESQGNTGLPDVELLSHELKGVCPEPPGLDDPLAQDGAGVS

Going from `CCCn1c(=O)c2[nH]c(-c3ccc(OCC(=O)Nc4ccc(F)cc4)cc3)cc2n(CCC)c1=O` [Example 3, 2-[4-(2,4-Dioxo-1,3-dipropyl-2,3,4,5-tetrahydro-1H-pyrrolo[3,2-d]pyrimidin-6-yl)phenoxy]-N-(4-fluorophenyl)acetamide] to `CCCn1c(=O)c2[nH]c(-c3ccc(OCC(=O)Nc4ccc(F)cc4)cc3)c(Br)c2n(CCC)c1=O` [Example 138, 2-[4-(7-Bromo-2,4-dioxo-1,3-dipropyl-2,3,4,5-tetrahydro-1H-pyrrolo[3,2-d]pyrimidin-6-yl)phenoxy]-N-(4-fluorophenyl)acetamide], the IC50 rises from 22 nM to 38 nM (1.7-fold).

Compared with `Cn1c(=O)c2[nH]c(-c3ccc(OCC(=O)Nc4nncs4)cc3)cc2n(C)c1=O` [Example 67, 2-[4-(1,3-Dimethyl-2,4-dioxo-2,3,4,5-tetrahydro-1H-pyrrolo[3,2-d]pyrimidin-6-yl)phenoxy]-N-[1,3,4]thiadiazol-2-ylacetamide], `COc1cc(-c2cc3c([nH]2)c(=O)n(C)c(=O)n3C)ccc1OCC(=O)Nc1ccc(F)cc1` [Example 160, 2-[4-(1,3-Dimethyl-2,4-dioxo-2,3,4,5-tetrahydro-1H-pyrrolo[3,2-d]pyrimidin-6-yl)-2-methoxyphenoxy]-N-(4-fluorophenyl)acetamide] is 3.2-fold higher in IC50: 26 nM for the first, 84 nM for the second. The first is the more potent here.

target: T2, hA2b receptors (Homo sapiens, UniProt P29275); assay: Adenosine 2b receptor subtype competition radioligand binding ([3H]DPCPX); conditions: membranes from hA2b receptors transfected to HEK293 cells, 30 min at 25° C., read-out: IC50 A2b
T2 construct: purchased Receptor Biology, Inc. (USA); host or cells: HEK293
T2 sequence (P29275 1-332): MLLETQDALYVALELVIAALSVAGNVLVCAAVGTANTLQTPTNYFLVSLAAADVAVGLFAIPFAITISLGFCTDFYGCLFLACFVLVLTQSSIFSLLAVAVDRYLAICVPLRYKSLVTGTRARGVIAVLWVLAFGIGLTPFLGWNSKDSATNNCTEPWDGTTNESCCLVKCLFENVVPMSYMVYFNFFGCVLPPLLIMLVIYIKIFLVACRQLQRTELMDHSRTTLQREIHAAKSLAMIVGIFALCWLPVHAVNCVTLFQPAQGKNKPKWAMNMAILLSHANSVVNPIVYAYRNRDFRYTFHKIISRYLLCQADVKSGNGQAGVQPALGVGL
Method: Adenosine 2b Receptor Subtype Competition Radioligand Binding
Human membranes from recombinant A2b receptors were purchased from Receptor Biology, Inc. (USA).
Competition assays were carried out by incubation of membranes from hA2b receptors transfected to HEK293 cells, [^3H]DPCPX as radioligand, buffer (50 mM Tris-HCl (pH 6.5), 10 mM MgCl2, 1 mM EDTA, 0.1 mM benzamidine, 2 units/ml adenosine deaminase), and unlabelled ligand in a total volume of 0.1 ml for 30 min at 25° C. NECA was used to determinate non-specific binding. Filter over Schleicher&Schuell GF/52 filters (pre-soaked 0.5% polyethylenyimine) in a Brandel cell harvester. Unbound radioligand was removed with 4×2 ml ice-cold 50 mM Tris-Hcl 50 mM (pH 6.5).

`CCCn1c(=O)c2[nH]c(-c3ccc(OCC(=O)N4CCN(c5ccccc5)CC4)cc3)cc2n(CCC)c1=O` [Example 2, 6-{4-[2-Oxo-2-(4-phenylpiperazin-1-yl)ethoxy]phenyl}-1,3-dipropyl-1,5-dihydropyrrolo[3,2-d]pyrimidine-2,4-dione] and `Cn1c(=O)c2[nH]c(-c3ccc(OCC(=O)N4CCN(c5ccccc5)CC4)cc3)cc2n(C)c1=O` [Example 68, 1,3-Dimethyl-6-{4-[2-oxo-2-(4-phenylpiperazin-1-yl)ethoxy]phenyl}-1,5-dihydropyrrolo[3,2-d]pyrimidine-2,4-dione] are within 1.5-fold of each other in IC50: 7 nM for the first, 8 nM for the second.

Compared with `CCCn1c(=O)c2[nH]c(-c3ccc(OCC(=O)Nc4ccc(F)cc4)cc3)cc2n(CCC)c1=O` [Example 3, 2-[4-(2,4-Dioxo-1,3-dipropyl-2,3,4,5-tetrahydro-1H-pyrrolo[3,2-d]pyrimidin-6-yl)phenoxy]-N-(4-fluorophenyl)acetamide], `CCCn1c(=O)c2[nH]c(-c3ccc(OCC(=O)N4CCc5ccccc5C4)cc3)cc2n(CCC)c1=O` [Example 4] is 1.7-fold lower in IC50: 5 nM for the first, 3 nM for the second. The second is the more potent here.

Compared with `Cn1c(=O)c2[nH]c(-c3ccc(OCC(=O)Nc4nncs4)cc3)cc2n(C)c1=O` [Example 67, 2-[4-(1,3-Dimethyl-2,4-dioxo-2,3,4,5-tetrahydro-1H-pyrrolo[3,2-d]pyrimidin-6-yl)phenoxy]-N-[1,3,4]thiadiazol-2-ylacetamide], `CCCn1c(=O)c2[nH]c(-c3ccc(OCC(=O)N4CCC(c5ccccc5)(c5ccccc5)CC4)cc3)cc2n(C)c1=O` [Example 100, 6-{4-[2-(4,4-Diphenylpiperidin-1-yl)-2-oxo-ethoxy]phenyl}-1-methyl-3-propyl-1,5-dihydropyrrolo[3,2-d]pyrimidine-2,4 dione] is 2.4-fold lower in IC50: 24 nM for the first, 10 nM for the second. The second is the more potent here.

`CCCn1c(=O)c2[nH]c(-c3ccc(OCc4nc(-c5ccccc5)no4)cc3)cc2n(CCC)c1=O` [Example 210, 6-[4-(3-Phenyl[1,2,4]oxadiazol-5-ylmethoxy)phenyl]-1,3-dipropyl-1,5-dihydropyrrolo[3,2-d]pyrimidine-2,4-dione] gave an IC50 of 17 nM.
